Assay [1] addresses Eukaryotic translation initiation factor 2-alpha kinase 1 (Homo sapiens) (UniProt Q9BQI3). The assay is described as follows: Selectivity interaction (ProQinase) EUB0000171b EIF2AK1.
The target of assay [2] is T1, Myosin light chain kinase (Homo sapiens) (UniProt Q32MK0).
T1 sequence (whole entry): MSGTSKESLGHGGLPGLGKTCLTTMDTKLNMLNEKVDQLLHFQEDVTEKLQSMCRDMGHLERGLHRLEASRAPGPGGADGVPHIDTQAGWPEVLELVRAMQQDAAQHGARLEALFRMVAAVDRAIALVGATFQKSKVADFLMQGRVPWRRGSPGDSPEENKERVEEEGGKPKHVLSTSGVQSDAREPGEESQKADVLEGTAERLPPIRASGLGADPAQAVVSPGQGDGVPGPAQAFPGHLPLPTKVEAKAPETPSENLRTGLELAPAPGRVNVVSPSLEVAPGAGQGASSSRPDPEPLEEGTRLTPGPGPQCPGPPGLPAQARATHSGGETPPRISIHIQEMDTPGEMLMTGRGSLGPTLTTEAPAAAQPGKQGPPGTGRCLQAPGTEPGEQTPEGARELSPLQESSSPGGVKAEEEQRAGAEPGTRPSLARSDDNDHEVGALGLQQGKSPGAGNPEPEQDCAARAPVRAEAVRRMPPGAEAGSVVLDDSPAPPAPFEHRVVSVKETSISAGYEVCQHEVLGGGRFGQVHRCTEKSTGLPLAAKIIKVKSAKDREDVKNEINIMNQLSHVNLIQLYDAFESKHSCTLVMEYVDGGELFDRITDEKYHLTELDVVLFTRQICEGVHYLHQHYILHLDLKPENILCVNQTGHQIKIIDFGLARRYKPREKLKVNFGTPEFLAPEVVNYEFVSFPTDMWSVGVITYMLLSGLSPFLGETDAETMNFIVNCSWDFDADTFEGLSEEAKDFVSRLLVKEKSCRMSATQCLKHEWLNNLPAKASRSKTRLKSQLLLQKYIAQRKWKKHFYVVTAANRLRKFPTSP
The assay can be described thus: Selectivity interaction (ProQinase) EUB0000171b MYLK3.

Assay [3] has as its target T2, Tyrosine-protein kinase JAK3 (Homo sapiens) (UniProt P52333).
T2 sequence (whole entry): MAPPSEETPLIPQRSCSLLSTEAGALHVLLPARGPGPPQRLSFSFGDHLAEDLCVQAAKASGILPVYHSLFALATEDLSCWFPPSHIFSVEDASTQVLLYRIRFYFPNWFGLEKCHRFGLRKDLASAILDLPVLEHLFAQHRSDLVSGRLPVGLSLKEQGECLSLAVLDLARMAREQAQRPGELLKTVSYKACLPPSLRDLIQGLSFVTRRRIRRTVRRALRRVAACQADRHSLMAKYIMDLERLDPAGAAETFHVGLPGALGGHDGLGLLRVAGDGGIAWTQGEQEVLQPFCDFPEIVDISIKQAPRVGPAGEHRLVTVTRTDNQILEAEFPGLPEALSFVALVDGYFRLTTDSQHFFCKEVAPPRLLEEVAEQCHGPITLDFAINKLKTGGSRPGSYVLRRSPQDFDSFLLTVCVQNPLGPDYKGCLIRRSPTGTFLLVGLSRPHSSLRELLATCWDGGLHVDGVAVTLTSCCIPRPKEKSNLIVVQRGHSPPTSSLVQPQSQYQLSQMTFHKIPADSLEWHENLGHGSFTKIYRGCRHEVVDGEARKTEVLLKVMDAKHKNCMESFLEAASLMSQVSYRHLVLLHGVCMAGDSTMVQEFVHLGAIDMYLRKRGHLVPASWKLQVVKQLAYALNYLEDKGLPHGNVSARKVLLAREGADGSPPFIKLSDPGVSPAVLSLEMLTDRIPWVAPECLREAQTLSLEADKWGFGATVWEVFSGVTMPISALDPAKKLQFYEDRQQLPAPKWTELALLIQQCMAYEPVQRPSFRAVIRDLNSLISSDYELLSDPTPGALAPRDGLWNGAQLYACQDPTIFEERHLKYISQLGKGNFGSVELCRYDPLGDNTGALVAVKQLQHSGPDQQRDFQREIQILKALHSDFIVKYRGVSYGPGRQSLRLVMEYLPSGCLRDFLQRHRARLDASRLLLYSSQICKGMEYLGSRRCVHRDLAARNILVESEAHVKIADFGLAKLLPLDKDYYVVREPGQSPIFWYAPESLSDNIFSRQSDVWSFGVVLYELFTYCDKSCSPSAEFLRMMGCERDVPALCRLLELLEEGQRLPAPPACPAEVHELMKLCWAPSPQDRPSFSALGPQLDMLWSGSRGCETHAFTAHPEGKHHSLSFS
Conditions: at 10 µM.

In assay [4] the target is Hepatocyte growth factor receptor (Homo sapiens, UniProt P08581). The assay is described as follows: Selectivity interaction (Millipore kinase profiler) EUB0000124b MET. Conditions: at 10 µM.
Hepatocyte growth factor receptor, sequence (P08581 whole entry): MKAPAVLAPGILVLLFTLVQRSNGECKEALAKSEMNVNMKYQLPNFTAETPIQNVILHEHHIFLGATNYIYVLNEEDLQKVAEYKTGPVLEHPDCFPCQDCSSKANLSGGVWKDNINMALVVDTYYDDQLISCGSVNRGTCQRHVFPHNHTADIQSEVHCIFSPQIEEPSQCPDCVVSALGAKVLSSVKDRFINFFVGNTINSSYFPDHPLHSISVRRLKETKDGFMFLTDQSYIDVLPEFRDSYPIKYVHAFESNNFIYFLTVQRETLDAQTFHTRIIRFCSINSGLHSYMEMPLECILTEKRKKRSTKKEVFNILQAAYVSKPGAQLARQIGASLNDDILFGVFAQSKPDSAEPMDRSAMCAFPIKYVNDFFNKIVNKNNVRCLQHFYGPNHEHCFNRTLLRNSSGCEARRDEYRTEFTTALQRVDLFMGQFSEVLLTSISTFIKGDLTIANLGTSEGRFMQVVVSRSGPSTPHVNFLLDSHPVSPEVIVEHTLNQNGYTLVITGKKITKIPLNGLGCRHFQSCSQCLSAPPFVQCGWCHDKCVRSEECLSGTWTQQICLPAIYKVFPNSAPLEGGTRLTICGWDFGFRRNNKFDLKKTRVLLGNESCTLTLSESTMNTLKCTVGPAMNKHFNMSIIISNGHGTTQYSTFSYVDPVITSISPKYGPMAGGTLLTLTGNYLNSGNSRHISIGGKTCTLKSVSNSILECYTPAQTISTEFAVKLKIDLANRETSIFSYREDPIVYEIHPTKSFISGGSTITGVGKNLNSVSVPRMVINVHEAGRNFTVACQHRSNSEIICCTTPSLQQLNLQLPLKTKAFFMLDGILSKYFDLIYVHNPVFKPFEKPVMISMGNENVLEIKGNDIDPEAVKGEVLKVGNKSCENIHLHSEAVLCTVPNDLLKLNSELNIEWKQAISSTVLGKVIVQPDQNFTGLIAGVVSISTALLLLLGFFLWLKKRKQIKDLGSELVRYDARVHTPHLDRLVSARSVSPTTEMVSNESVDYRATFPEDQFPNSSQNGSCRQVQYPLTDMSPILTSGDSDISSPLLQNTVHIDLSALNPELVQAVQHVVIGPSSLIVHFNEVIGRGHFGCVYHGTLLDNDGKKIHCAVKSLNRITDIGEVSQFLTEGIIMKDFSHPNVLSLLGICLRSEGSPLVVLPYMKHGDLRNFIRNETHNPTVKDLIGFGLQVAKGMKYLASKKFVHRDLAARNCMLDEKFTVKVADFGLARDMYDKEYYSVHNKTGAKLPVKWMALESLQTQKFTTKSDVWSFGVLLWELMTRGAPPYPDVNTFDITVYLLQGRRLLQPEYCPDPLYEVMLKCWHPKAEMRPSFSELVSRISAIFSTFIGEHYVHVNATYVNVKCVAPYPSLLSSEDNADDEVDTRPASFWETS
The target in assay [5] is Mitogen-activated protein kinase kinase kinase 10 (Homo sapiens) (UniProt Q02779). The assay can be described thus: Selectivity interaction (KinomeScan (DiscoverX)) EUB0000092b MAP3K10. Conditions: at 10 µM.
Mitogen-activated protein kinase kinase kinase 10 (Homo sapiens), sequence (Q02779 whole entry, looked up): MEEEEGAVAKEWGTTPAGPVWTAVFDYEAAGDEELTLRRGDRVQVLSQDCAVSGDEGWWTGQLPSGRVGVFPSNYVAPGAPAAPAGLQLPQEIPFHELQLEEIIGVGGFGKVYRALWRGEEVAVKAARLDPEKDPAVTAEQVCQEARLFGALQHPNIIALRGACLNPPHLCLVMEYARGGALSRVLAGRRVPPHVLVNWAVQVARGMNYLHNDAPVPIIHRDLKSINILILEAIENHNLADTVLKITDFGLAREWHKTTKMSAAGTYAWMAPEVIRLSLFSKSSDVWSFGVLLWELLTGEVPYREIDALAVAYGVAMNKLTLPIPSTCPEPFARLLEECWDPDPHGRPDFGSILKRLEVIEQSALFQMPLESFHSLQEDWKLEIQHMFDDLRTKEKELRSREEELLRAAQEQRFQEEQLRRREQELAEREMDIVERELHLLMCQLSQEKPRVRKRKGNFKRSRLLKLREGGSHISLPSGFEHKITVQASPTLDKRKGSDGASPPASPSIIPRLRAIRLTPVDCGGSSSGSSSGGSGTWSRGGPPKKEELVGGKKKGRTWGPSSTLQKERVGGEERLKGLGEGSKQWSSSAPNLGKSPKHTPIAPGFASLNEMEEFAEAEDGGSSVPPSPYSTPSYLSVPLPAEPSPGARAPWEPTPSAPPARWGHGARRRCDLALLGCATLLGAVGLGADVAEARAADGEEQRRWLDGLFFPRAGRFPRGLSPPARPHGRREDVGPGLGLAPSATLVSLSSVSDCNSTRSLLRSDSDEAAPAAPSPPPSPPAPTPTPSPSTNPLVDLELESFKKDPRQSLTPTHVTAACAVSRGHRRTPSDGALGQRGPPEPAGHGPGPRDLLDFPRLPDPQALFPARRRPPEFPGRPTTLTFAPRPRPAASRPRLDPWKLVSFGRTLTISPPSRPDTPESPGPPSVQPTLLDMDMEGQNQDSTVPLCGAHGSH
The nature of assay [6]: Selectivity interaction (KinomeScan (DiscoverX)) EUB0000092b PKNB. Conditions: at 10 µM.
Assay [7] concerns the target T3, Mitogen-activated protein kinase 15 (Homo sapiens) (UniProt Q8TD08).
T3 sequence (whole entry): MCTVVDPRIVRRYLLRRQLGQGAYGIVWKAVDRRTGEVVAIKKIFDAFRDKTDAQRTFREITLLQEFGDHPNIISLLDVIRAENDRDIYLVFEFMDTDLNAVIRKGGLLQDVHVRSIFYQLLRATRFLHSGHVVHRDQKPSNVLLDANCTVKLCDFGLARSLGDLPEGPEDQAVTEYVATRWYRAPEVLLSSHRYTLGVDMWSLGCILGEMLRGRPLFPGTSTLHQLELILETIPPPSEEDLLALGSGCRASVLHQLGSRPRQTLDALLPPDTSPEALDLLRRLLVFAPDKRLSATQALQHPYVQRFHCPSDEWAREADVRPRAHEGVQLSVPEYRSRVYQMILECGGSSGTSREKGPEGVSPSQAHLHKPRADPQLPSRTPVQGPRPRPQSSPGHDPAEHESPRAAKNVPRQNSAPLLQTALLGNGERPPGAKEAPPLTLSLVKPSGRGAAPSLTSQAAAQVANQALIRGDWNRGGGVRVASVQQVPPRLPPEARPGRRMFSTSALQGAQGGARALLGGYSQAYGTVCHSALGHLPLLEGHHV
The assay can be described thus: Selectivity interaction (KinomeScan (DiscoverX)) EUB0000655a MAPK15. Conditions: at 10 µM.

Assay [8] addresses Glycogen synthase kinase-3 alpha (Homo sapiens, UniProt P49840). The assay is described as follows: Selectivity interaction (Kinase counterscreening (biochemical assay)) EUB0000604a GSK3A.
In assay [9] the target is Substance-P receptor (Homo sapiens) (UniProt P25103). The assay can be described thus: Selectivity interaction (Eurofins CEREP Diversity Profile (receptors and ion channels)) EUB0000279b TACR1. Conditions: at 10 µM.
Substance-P receptor (Homo sapiens), sequence (P25103 whole entry): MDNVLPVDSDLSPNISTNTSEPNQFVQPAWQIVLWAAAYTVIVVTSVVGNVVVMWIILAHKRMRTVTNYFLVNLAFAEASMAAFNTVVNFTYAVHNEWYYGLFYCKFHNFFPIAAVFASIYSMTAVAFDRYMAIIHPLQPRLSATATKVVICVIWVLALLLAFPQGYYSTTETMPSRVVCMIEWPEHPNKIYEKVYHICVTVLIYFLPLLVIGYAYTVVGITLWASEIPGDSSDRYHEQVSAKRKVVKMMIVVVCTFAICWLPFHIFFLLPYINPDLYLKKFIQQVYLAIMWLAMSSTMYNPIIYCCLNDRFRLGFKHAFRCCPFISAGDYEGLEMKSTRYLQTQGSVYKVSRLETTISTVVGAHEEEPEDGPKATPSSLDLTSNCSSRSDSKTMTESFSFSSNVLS
In assay [10] the target is Beta-1 adrenergic receptor (Homo sapiens, UniProt P08588). The assay can be described thus: Selectivity interaction (Panel of non-epigenetic targets (kinases, GPCRs, ion channels, and transporters, Eurofins) ) EUB0000271b ADRB1. Particulars: at 1 µM.
Beta-1 adrenergic receptor, sequence (P08588 whole entry, looked up): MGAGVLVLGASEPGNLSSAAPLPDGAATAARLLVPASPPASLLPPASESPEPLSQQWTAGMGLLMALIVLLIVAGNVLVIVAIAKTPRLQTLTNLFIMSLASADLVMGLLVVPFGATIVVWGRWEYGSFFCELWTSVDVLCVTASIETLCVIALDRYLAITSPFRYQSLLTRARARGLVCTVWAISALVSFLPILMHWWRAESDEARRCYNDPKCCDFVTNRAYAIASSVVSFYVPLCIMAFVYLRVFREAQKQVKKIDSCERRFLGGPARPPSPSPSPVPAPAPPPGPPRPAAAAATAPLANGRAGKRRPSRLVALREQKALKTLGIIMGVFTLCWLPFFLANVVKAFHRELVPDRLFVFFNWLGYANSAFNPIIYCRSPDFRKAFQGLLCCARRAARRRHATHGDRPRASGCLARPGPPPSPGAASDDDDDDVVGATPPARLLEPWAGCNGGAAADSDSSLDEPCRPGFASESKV

Eukaryotic translation initiation factor 2-alpha kinase 1 (Homo sapiens), sequence (Q9BQI3 whole entry): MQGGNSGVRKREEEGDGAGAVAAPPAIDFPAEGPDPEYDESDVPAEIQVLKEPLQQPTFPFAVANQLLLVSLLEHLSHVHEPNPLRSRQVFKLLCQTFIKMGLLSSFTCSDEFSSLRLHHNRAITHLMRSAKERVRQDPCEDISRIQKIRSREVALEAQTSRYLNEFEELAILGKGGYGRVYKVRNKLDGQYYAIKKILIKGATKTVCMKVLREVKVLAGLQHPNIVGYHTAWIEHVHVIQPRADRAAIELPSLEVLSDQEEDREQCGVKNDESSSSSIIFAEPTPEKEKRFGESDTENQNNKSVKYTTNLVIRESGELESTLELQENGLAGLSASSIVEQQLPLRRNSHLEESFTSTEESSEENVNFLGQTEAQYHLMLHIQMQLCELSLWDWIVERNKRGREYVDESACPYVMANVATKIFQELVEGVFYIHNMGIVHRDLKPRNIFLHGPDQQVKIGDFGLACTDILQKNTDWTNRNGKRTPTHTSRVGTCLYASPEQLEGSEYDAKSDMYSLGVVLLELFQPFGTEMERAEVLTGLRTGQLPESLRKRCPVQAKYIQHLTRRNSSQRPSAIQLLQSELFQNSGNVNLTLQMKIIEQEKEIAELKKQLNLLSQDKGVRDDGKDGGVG
Glycogen synthase kinase-3 alpha, sequence (P49840 whole entry): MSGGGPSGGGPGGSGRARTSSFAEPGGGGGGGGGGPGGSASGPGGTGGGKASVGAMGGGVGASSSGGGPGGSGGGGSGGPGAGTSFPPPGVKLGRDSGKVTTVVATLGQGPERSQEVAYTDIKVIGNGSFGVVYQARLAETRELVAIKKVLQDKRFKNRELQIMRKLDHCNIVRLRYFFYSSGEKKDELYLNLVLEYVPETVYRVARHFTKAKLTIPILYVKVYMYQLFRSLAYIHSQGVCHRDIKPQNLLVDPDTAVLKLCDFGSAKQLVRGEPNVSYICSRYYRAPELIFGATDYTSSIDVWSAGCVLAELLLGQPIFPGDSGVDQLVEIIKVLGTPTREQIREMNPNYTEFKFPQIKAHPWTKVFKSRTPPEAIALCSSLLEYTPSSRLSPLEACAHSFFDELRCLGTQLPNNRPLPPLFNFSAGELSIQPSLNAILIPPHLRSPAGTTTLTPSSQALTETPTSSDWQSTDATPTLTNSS

In the case of `C=CC(=O)Nc1cccc(C(=O)Nc2ccc(Nc3cc(-c4[nH]c(SC)nc4C)ccn3)cc2)c1`, the % of control in assay [1] (at 1 µM) came out at 85%; in assay [1] (at 5 µM) it was 66%; in assay [2] (at 1 µM) it was 89%; in assay [2] (at 5 µM), 68%.
Take `CCN(CC)CCCCNc1ncc2cc(-c3cc(OC)cc(OC)c3)c(NC(=O)NC(C)(C)C)nc2n1`: in [3], the % of control came to 100%.
On to `CC(=O)Nc1cccc(-n2c(=O)n(C3CC3)c(=O)c3c(Nc4ccc(I)cc4F)n(C)c(=O)c(C)c32)c1`, for which the % of control in [4] was determined as 150%.
On to `CCC(=O)N1CCN(c2ccc(-n3c(=O)ccc4cnc5ccc(-c6cnc7ccccc7c6)cc5c43)cc2C(F)(F)F)CC1`, for which the % of control in [5] came out at 99%; in assay [6], 64%.
In [7], `CN(C)CCOc1ccc(-c2nc(-c3ccncc3)c(-c3ccc4c(c3)CC/C4=N\O)[nH]2)cc1` displayed a % of control of 100%.
Regarding `Cc1cnc(Nc2ccc(F)cc2Cl)nc1-c1c[nH]c(C(=O)N[C@H](CO)c2cccc(Cl)c2)c1`, in assay [8], affinity was put at a Ki of 400 nM. This lies in the sub-micromolar range.
On to `CC(=O)c1cc(-c2ccccc2OCC2CC2)c2ncccn12`, for which the % of control in assay [9] stood at 72%.
Regarding `Cc1cc(C)cc([C@@H]2c3cc(C)ccc3NC(=O)CN2C(=O)c2ccc(Br)s2)c1`, the % of inhibition in assay [10] was -13%.

For the origin of these results see ChEMBL document CHEMBL5465560, “Selectivity Literature for EUbOPEN Chemogenomic Library” (2024).
